Experimental findings from patent publication US9518022B2, “Anti-HIV compounds” (priority 2014, dated 2016) are described below.

A word on the CC50: it is the concentration that lowers cell viability or growth by half. High values mean better tolerance by the cells, low ones harm at low concentration.

This data set is described as follows: Cytotoxicity assay (AlamarBlue) in mock infected MT-2 cells. The class given is cell-based. Conditions: human. The procedure:
The present assay was used to screen candidate antiviral compounds by quantification of virus spread and production over several rounds of infection in vitro. MT-2, a HIV-1 permissive human T-cell line, was seeded in microtiter plates and was simultaneously treated with serially diluted compound and inoculated with a HIV-1 NL4-3 viral clone engineered to express Renilla luciferase in place of Nef. Following treatment, the culture was incubated for 96 hours. After the incubation, media was collected and used to estimate relative infectivity on the indicator cell line, TZM-bl. Additionally, viral spread was quantified by measuring luciferase activity via a commercially available luciferase substrate. In parallel, MT-2 cells were seeded and inoculated with mock virus in the presence of serially diluted compound. Compound toxicity was quantified 96 hours after treatment with AlamarBlue.
MT-2 (NIH Aids reagent program 237) cells were grown and maintained in an incubator at 37° C. with 5% CO2 using a basal medium of RPMI-1640 supplemented with 10% FBS. Cells were seeded in 100 μl at 2×10^4 cells/well in white walled 96-well microtiter plates. Candidate compounds were 3-fold serially diluted in the appropriate solvent. Solvent without compound was used as a no drug reference. Cells were inoculated at a multiplicity of 0.027 with an HIV-1 NL4-3 virus stock engineered to express Renilla luciferase in place of Nef. Diluted virus stock was first added to serially diluted compound. Compound and virus were delivered to cells in an equal volume (100 μl) and treated cultures were returned to the incubator for 96 hours. In parallel, plates for cytotoxicity estimates were prepared in the same way except cells were plated in clear walled 96-well microtiter plates and were mock infected.
At 96 hours post treatment, 20 μl AlamarBlue proliferation reagent was added to 200 μl treated and mock infected cultures and incubated for 3 hours at 37° C. with 5% CO2 then read at 545, 590 nm on fluorescence plate reader (Biotek).
For all assays, data was imported into Accelrys Assay Explorer 3.3. In Assay Explorer, % inhibition (antiviral or cytotoxicity) was calculated using the solvent control as a reference by the following equation: 1−(SignalCompound/SignalReference). The % Inhibition and compound concentration data was fitted using the following 4-parameter logistic model (Assay Explorer model 42):
[formula] where X is compound concentration, Y is % inhibition, D is the maximum % Inhibition (constrained to 100%), C is IC50 value or inflection point, B is the hill slope, and A is the minimum % inhibition (constrained to 0%). The IC50 value is reported as the EC50 or CC50 depending on the assay endpoint. EC50 represents the effective concentration at which virus replication is inhibited by 50 percent. CC50 represents the concentration that results in the death of 50 percent of the host cells. The selectivity or therapeutic index (SI or TI), is the ratio of CC50 over EC50 and represents the relative effectiveness in inhibiting viral replication compared to inducing cell death.

In turn, `COc1cc(F)c(/C=C/C2NCCc3cc(OCc4ccccc4)c(OC)cc32)c(F)c1` (centres unmarked) [BU, 6-(benzyloxy)-1-[(E)-2-(2,6-difluoro-4-methoxyphenyl)ethenyl]-7-methoxy-1,2,3,4-tetrahydroisoquinoline] displayed a CC50 at 96 h of 10.6 µM.

As to `COc1cc(C)c(/C=C/C2NCCc3cc(OCc4ccccc4)c(OC)cc32)cc1C` (centres unmarked) [BV, 6-(benzyloxy)-7-methoxy-1-[(E)-2-(4-methoxy-2,5-dimethylphenyl)ethenyl]-1,2,3,4-tetrahydroisoquinoline], the midpoint of cytotoxicity, the CC50 at 96 h, lay at 2.63 µM.

For the compound `COc1cc2c(cc1OCc1ccccc1)CCNC2/C=C/c1cc(C(C)C)c(OC)cc1C` (centres unmarked) [BW, 6-(benzyloxy)-7-methoxy-1-[(E)-2-[4-methoxy-2-methyl-5-(propan-2-yl)phenyl]ethenyl]-1,2,3,4-tetrahydroisoquinoline], it took 1.88 µM to reach half-maximal cytotoxicity (CC50 at 96 h).

Turning to `COc1cc2c(cc1OCc1ccccc1)CCNC2/C=C/c1cc(OCC(C)(C)C)c(OC)cc1C` (centres unmarked) [BX, 6-(benzyloxy)-1-[(E)-2-[5-(2,2-dimethylpropoxy)-4-methoxy-2-methylphenyl]ethenyl]-7-methoxy-1,2,3,4-tetrahydroisoquinoline], the midpoint of cytotoxicity, the CC50 at 96 h, lay at 3.4 µM.

In the case of `COc1cc2c(cc1OCc1ccccc1)CCNC2/C=C/c1cc(OCC2CCNCC2)c(OC)cc1C` (centres unmarked) [BY, 6-(benzyloxy)-7-methoxy-1-[(E)-2-[4-methoxy-2-methyl-5-(piperidin-4-ylmethoxy)phenyl]ethenyl]-1,2,3,4-tetrahydroisoquinoline], half-maximal cytotoxicity (CC50 at 96 h) was put at 1.97 µM.

On to `COc1cc2c(cc1OCc1ccccc1)CCNC2/C=C/c1ccc(S(C)(=O)=O)cc1` (centres unmarked) [BZ, 6-(benzyloxy)-1-[(E)-2-(4-methanesulfonylphenyl)ethenyl]-7-methoxy-1,2,3,4-tetrahydroisoquinoline], for which half-maximal cytotoxicity (CC50 at 96 h) was put at 1 µM.

`COc1ccc(/C=C/C2NCCc3cc(OCc4ccccc4)c(OC)cc32)c(OC)n1` (centres unmarked) [CA, 6-(benzyloxy)-1-[(E)-2-(2,6-dimethoxypyridin-3-yl)ethenyl]-7-methoxy-1,2,3,4-tetrahydroisoquinoline]: the CC50 at 96 h stood at 15.3 µM.

The compound `COc1cc2c(cc1OCc1ccccc1)CCNC2/C=C/c1ccc2c(c1)CCCO2` (centres unmarked) [CB, 6-(benzyloxy)-1-[(E)-2-(3,4-dihydro-2H-1-benzopyran-6-yl)ethenyl]-7-methoxy-1,2,3,4-tetrahydroisoquinoline] had a CC50 at 96 h of 5.36 µM.

Take `COc1cc2c(cc1OCc1ccccc1)CCNC2/C=C/c1c(C)ccc2c1OCCC2` (centres unmarked) [CC, 6-(benzyloxy)-7-methoxy-1-[(E)-2-(7-methyl-3,4-dihydro-2H-1-benzopyran-8-yl)ethenyl]-1,2,3,4-tetrahydroisoquinoline]: the cytotoxic concentration (CC50) at 96 h stood at 5.44 µM.

Turning to `COc1cc(C)c(/C=C/C2NCCc3cc(OCc4ccccc4)c(OC)cc32)cc1OCCCCN=[N+]=[N-]` (centres unmarked) [CD, 1-[(E)-2-[5-(4-azidobutoxy)-4-methoxy-2-methylphenyl]ethenyl]-6-(benzyloxy)-7-methoxy-1,2,3,4-tetrahydroisoquinoline], the CC50 at 96 h amounted to 1.63 µM.

The compound `COc1cc2c(cc1OCc1ccccc1)CCNC2/C=C/c1cc2c(cc1C)OCCC2` (centres unmarked) [CE, 6-(benzyloxy)-7-methoxy-1-[(E)-2-(7-methyl-3,4-dihydro-2H-1-benzopyran-6-yl)ethenyl]-1,2,3,4-tetrahydroisoquinoline] came in with a CC50 at 96 h of 4.87 µM.

For `COc1cc2c(cc1OCc1ccccc1)CCNC2/C=C/c1cccc2c1OCCC2` (centres unmarked) [CF, 6-(benzyloxy)-1-[(E)-2-(3,4-dihydro-2H-1-benzopyran-8-yl)ethenyl]-7-methoxy-1,2,3,4-tetrahydroisoquinoline], the midpoint of cytotoxicity, the CC50 at 96 h, lay at 9.1 µM.

Compound `COc1cc2c(cc1OCc1ccccc1)CCNC2/C=C/c1cc2c(cc1C)OCC2` (centres unmarked) [CG, 6-(benzyloxy)-7-methoxy-1-[(E)-2-(6-methyl-2,3-dihydro-1-benzofuran-5-yl)ethenyl]-1,2,3,4-tetrahydroisoquinoline] displayed a half-maximal cytotoxic concentration (CC50) at 96 h of 4.8 µM.

Turning to `COc1cc2c(cc1OCc1ccccc1)CCNC2/C=C/c1cc2ccccc2n1C(=O)OC(C)(C)C` (centres unmarked) [CH, tert-butyl 2-[(E)-2-[6-(benzyloxy)-7-methoxy-1,2,3,4-tetrahydroisoquinolin-1-yl]ethenyl]-1H-indole-1-carboxylate], the CC50 at 96 h worked out at 3.48 µM.

In the case of `COc1cc2c(cc1OCc1ccccc1)CCNC2/C=C/c1cn(C(=O)OC(C)(C)C)c2ccccc12` (centres unmarked) [CI, tert-butyl 3-[(E)-2-[6-(benzyloxy)-7-methoxy-1,2,3,4-tetrahydroisoquinolin-1-yl]ethenyl]-1H-indole-1-carboxylate], the CC50 at 96 h was 4.98 µM.

Compound `COc1cc2c(cc1OCc1ccccc1)CCNC2/C=C/c1c[nH]c2ccccc12` (centres unmarked) [CJ, 6-(benzyloxy)-1-[(E)-2-(1H-indol-3-yl)ethenyl]-7-methoxy-1,2,3,4-tetrahydroisoquinoline] registered a CC50 at 96 h of 6.55 µM.

In the case of `CCOC(=O)CCCOc1cc(/C=C/C2NCCc3cc(OCc4ccccc4)c(OC)cc32)ccc1OC` (centres unmarked) [CV, ethyl 4-{5-[(E)-2-[6-(benzyloxy)-7-methoxy-1,2,3,4-tetrahydroisoquinolin-1-yl]ethenyl]-2-methoxyphenoxy}butanoate], the midpoint of cytotoxicity, the CC50 at 96 h, lay at 2.7 µM.

`COc1cc2c(cc1OCc1ccccc1)CCNC2/C=C/c1ccccc1NC(=O)OC(C)(C)C` (centres unmarked) [CW, tert-butyl N-{2-[(E)-2-[6-(benzyloxy)-7-methoxy-1,2,3,4-tetrahydroisoquinolin-1-yl]ethenyl]phenyl}carbamate] returned a CC50 at 96 h of 23.6 µM.

On to `COc1cc2c(cc1OCc1ccccc1)CCNC2/C=C/c1ccccc1N` (centres unmarked) [CX, 2-[(E)-2-[6-(benzyloxy)-7-methoxy-1,2,3,4-tetrahydroisoquinolin-1-yl]ethenyl]aniline], for which the CC50 at 96 h was determined as 20.8 µM.

In the case of `COc1cc2c(cc1OCc1ccccc1)CCNC2/C=C/c1ccc(OC)c(C(F)(F)F)c1` (centres unmarked) [CY, 6-(benzyloxy)-7-methoxy-1-[(E)-2-[4-methoxy-3-(trifluoromethyl)phenyl]ethenyl]-1,2,3,4-tetrahydroisoquinoline], the CC50 at 96 h worked out at 4 µM.

Take `COc1cc2c(cc1OCc1ccccc1)CCNC2/C=C/c1cc(C)c(OC)c(C(F)(F)F)c1` (centres unmarked) [CZ, 6-(benzyloxy)-7-methoxy-1-[(E)-2-[4-methoxy-3-methyl-5-(trifluoromethyl)phenyl]ethenyl]-1,2,3,4-tetrahydroisoquinoline]: the midpoint of cytotoxicity, the CC50 at 96 h, lay at 4 µM.

As for `COc1cc2c(cc1OCc1ccccc1)CCNC2/C=C/c1ccccc1C(F)(F)F` (centres unmarked) [DA, 6-(benzyloxy)-7-methoxy-1-[(E)-2-[2-(trifluoromethyl)phenyl]ethenyl]-1,2,3,4-tetrahydroisoquinoline], the midpoint of cytotoxicity, the CC50 at 96 h, lay at 10 µM.

With `COc1cc2c(cc1OCc1ccccc1)CCNC2/C=C/c1cccc(C(F)(F)F)c1` (centres unmarked) [DB, 6-(benzyloxy)-7-methoxy-1-[(E)-2-[3-(trifluoromethyl)phenyl]ethenyl]-1,2,3,4-tetrahydroisoquinoline], the CC50 at 96 h worked out at 10 µM.

On to `COc1cc2c(cc1OCc1ccccc1)CCNC2/C=C/c1ccccc1N(C)C` (centres unmarked) [DC, 2-[(E)-2-[6-(benzyloxy)-7-methoxy-1,2,3,4-tetrahydroisoquinolin-1-yl]ethenyl]-N,N-dimethylaniline], for which the CC50 at 96 h was found to be 10 µM.

Compound `COCCOc1ccccc1/C=C/C1NCCc2cc(OCc3ccccc3)c(OC)cc21` (centres unmarked) [DE, 6-(benzyloxy)-7-methoxy-1-[(E)-2-[2-(2-methoxyethoxy)phenyl]ethenyl]-1,2,3,4-tetrahydroisoquinoline] returned a CC50 at 96 h of 10 µM.

With `COc1cc2c(cc1OCc1ccccc1)CCNC2/C=C/c1ccc2c(c1)OC(F)(F)O2` (centres unmarked) [DF, 6-(benzyloxy)-1-[(E)-2-(2,2-difluoro-2H-1,3-benzodioxol-5-yl)ethenyl]-7-methoxy-1,2,3,4-tetrahydroisoquinoline], the CC50 at 96 h is 10 µM.

For `COc1ccccc1/C=C/C1NCCc2cc(OCc3ccccc3)c(OC)cc21` (centres unmarked) [DG, 6-(benzyloxy)-7-methoxy-1-[(E)-2-(2-methoxyphenyl)ethenyl]-1,2,3,4-tetrahydroisoquinoline], the CC50 at 96 h stood at 9 µM.

`COc1cc2c(cc1OCc1ccccc1)CCNC2/C=C/c1ccccc1N1CCOCC1` (centres unmarked) [DH, 6-(benzyloxy)-7-methoxy-1-[(E)-2-[2-(morpholin-4-yl)phenyl]ethenyl]-1,2,3,4-tetrahydroisoquinoline] showed a CC50 at 96 h of 17.8 µM.

Compound `COc1ccc2cc(/C=C/C3NCCc4cc(OCc5ccccc5)c(OC)cc43)ccc2c1` (centres unmarked) [DI, 6-(benzyloxy)-7-methoxy-1-[(E)-2-(6-methoxynaphthalen-2-yl)ethenyl]-1,2,3,4-tetrahydroisoquinoline] showed a CC50 at 96 h of 5.84 µM.
